Measured values as given in patent US20060183773A1, “Uses of methylphenidate derivatives” (priority 2005, published 2006).

Legend:
Assay type in all cases: cell-based, human
[1] = test system: T cells; assay: CD69+TCR staining of PBL, flow cytometry (T-cell activation); settings: for CD69+TCR staining of PHA-stimulated cells: PHA alone 84%
Experimental: After this incubation, PHA was added to give a final concentration of 5 μg/ml, and the cells were incubated for an additional 72 hours at 37° C., 5% CO2. All cultures were performed in triplicate. Cells were then removed by centrifugation at 1000 rpm for 10 minutes.
The cells were further analyzed by flow cytometry. Annexin was used to determine populations of dead or dying cells. Anti-CD69 antibody was used to establish the level of cellular activation. Antibody to T-cell receptor αβ (TCR) was also used. Recombinant Annexin 5 (PE and FITC conjugates) and the antibodies were all purchase from Caltag (Burlingham, Calif.) and used following the manufacturer's recommendations.

[2] = test system: IL-8; assay: IL-8 release by PHA-stimulated PBL, ELISA; settings: PBL donor GR-192; 2 μg/ml PHA, 96 h; Cpd II 15 μg/ml, Dex 10 μM; FIG. 8
Experimental: Whole blood was drawn from GR-192, a normal human volunteer, and processed as described in Example 1 to give heat-inactivated serum and PBL. […] After this incubation, PHA was added to give a final concentration of 2 μg/ml, and the cells were incubated for an additional 96 hours at 37° C., 5% CO2. All cultures were performed in triplicate. Cells were then removed by centrifugation at 1000 rpm for 10 minutes, and the culture medium collected.
Release of IL-8 into the culture medium was measured by ELISA. To perform the ELISA, matched pairs of antibodies against human IL-8 were purchased from Pierce Biotechnology and Biosource, respectively. ELISA strip well plates were coated with 2 μg/ml of antibody to IL-8 (in phosphate-buffered saline (PBS)) overnight at room temperature. The plates were then blocked using a 4% BSA solution in PBS for one hour, followed by the addition of 50 μl of experimental culture medium per well in duplicate. The plates were incubated at room temperature for one hour and then washed using 50 mM Tris pH 8.0 with 0.1% Tween 20. Then, solutions of 100 ng/ml biotinylated second antibody to IL-8 were made in blocking buffer, and 100 μl were added per well. The plates were incubated for 1 hour and washed again. […] OD was determined using microplate reader with a 450 nm filter.

[3] = test system: NFκB; assay: Activated NFκB in TNFα- or VEGF-treated HIAECs, TransAM assay
Experimental: Then, the amount of NFκB was determined using a TransAM™ NFκB p65/NFκB p50 Transcription Factor Assay Kit and a Nuclear Extract Kit from Active Motif North America, Carlsbad, Calif., according to the manufacturer's instructions. Briefly, a nuclear extract of the cells was prepared using the Nuclear Extract Kit. Then, the nuclear extract was added to the wells of the 96-well plate of the TransAM™ kit. Oligonucleotide containing an NFκB consensus binding site was immobilized in the wells, and the activated NFκB contained in the nuclear extract was bound to the oligonucleotide. Then, an antibody directed against the NFκB p65 or p50 subunit was added, and the NFκB complex bound to the oligonucleotide was detected. A secondary antibody conjugated to horseradish peroxidase (HRP) was next added to provide a colorimetric readout that was quantified by spectrophotometry (measurement at 450 nm).
Passage 8 (human iliac artery endothelial cells (HIAECs) (obtained from ATCC; catalog no. CC-2545) were grown to confluence in 25 cm^2 flasks in EGM-2 medium. Eighteen hours prior to the experiment, the medium was replaced with EGM-2 medium containing 0.1% FCS plus heparin, GA1000 (gentamycin) and bovine pituitary extract (all from Cambrex) to place the cells in a resting state. To perform the experiment the medium was aspirated from the flasks, and the following additives were added to the flasks in fresh medium (total volume of 5 ml/flask): 15 μg/ml of the compound of formula II (Cpd II) or 10 μM LY 294002. The flasks were incubated 2 hours at 37° C., 5% CO2 After this incubation, VEGF or TNFα was added to give a final concentration 10 ng/ml, and the flasks were incubated for an additional 30 minutes. Then, the amount of NFκB was determined using a TransAM™ NFκB p65/NFκB p50 Transcription Factor Assay Kit and a Nuclear Extract Kit from Active Motif North America, Carlsbad, Calif., as described in Example 9.

[4] = test system: STAT4; assay: Custom AntibodyArray, TRiPS cells: STAT4; settings: 15 μg/ml, 30 minutes
Experimental: (§1) Day 18 TRiPS cells, 1×10^6, were incubated for 30 minutes at 37° C., either with nothing added (“Nil”), with 1 μl CD3/CD28 Dynabeads (Dynal, Oslo, Norway) (“CD3/CD28 beads”) per 100,000 cells, or with CD3/CD28 beads and 15 μg/ml of the compound of formula II (Cpd II). After the incubation, the cells were lysed in Cell-Lytic Mammalian Cell Extraction Reagent (Sigma). After centrifugation to pellet cellular debris, the supernatants (cell extracts) were obtained.
(§2) The cell extracts (supernatants) were then analyzed using a Custom AntibodyArray™ manufactured by Hypromatrix Inc., Worcester, Mass., following the manufacturer's instructions. The Custom AntibodyArray™ is a nylon membrane blotted with antibodies to the proteins listed below. Briefly, the cell extracts were incubated with duplicate Custom AntibodyArray™'s for 2 hours at room temperature with slow shaking, followed by three washes with Tris buffer (150 mM NaCl, 25 mM Tris, 0.05% Tween-20, pH 7.5). HRP-labeled antibodies specific for phosphorylated-tyrosine, phosphorylated-serine and phosphorylated-threonine in Tris buffer were added, and the arrays incubated for 2 hours. After three more washes with Tris buffer, a peroxidase-reactive luminescent substrate was added. The arrays were visualized by exposure to X-ray film. Densitometry of the X-ray films was measured by scanning and computer analysis.

[5] = test system: STAT5b; assay: Custom AntibodyArray, TRiPS cells: STAT5b; settings: 15 μg/ml, 30 minutes
Experimental: as §1, §2

[6] = test system: IL-2; assay: Custom AntibodyArray, TRiPS cells: IL-2; settings: 15 μg/ml, 30 minutes
Experimental: as §1, §2

COC(=O)C(c1ccc(-c2ccccc2)cc1)C1CCCCN1 (stereo not drawn) [Cpd II]
CD69+TCR staining of PHA-stimulated cells ([1]; PHA 5 μg/ml plus 15 μg/ml): 64% | CD69+TCR staining of PHA-stimulated cells ([1]; PHA 5 μg/ml plus 50 μg/ml): 54% | CD69+TCR staining (activated T cells) ([1]; compound alone, no PHA): not detected | IL-8 release induced by PHA [2]: significantly inhibited IL-8 release induced by PHA | Mean OD 450 nm (NFκB) ([3]; TNFα 10 ng/ml + 15 μg/ml, control 0.174, TNFα only 0.881): 0.302 ± 0.003 | Mean OD 450 nm (NFκB) ([3]; VEGF 10 ng/ml + 15 μg/ml, control 0.174, VEGF only 0.220): 0.066 + 0.005 | Effect of Cpd II on the protein in CD3/CD28 stimulated TRiPS cells [4]: Activated | Effect of Cpd II on the protein in CD3/CD28 stimulated TRiPS cells [5]: Activated | Effect of Cpd II on the protein in CD3/CD28 stimulated TRiPS cells [6]: Decreased level back to basal levels (Nil control)
